Measured values published in US10925852B2, “Talc-bound compositions and uses thereof” (THE TRUSTEES OF COLUMBIA UNIVERSITY IN THE CITY OF NEW YORK, priority 2015, dated 2021).
Where a name gives a salt, the structure may show the parent alone. Read-outs that look alike come from different tables or passages of the source.

Assays:
NCI-28H cells [1] = assay: Cytotoxicity assay (MTS) of NCI-28H cells: doxorubicin, cisplatin, paclitaxel, talc, talc bound to these drugs (Example 21); format: cell-based; conditions: 72 hrs
Description: Compare survival rate between each formulation.
1. Set up 3 cytotoxicity plates for Day 2 experiment: trypsinize NCI-28H cells (T-75 flask, passage 12): • Remove old medium, wash cells with 7 ml DPBS, remove DPBS, add 2 ml trypsin, incubate plates for 1-2′, when cells detached add 6 ml fresh medium, mix cells and medium. • Count cells under the microscope using the glass slide. […] If we need 200 wells, in each well will be 5,000 cells in 0.1 ml; so total we need 1,000,000 cells in 20 ml. […] In 50 ml Falcon tube, combine 16.6 ml fresh medium and 3.4 ml cells. Gently mix.
3. […] Final solution is 500 μL of 20 μM.
1. […] Take out supernatant.
6. Check the plate and start incubation at 37° C./5% CO2
3. Wash cells 1×300 μL media, remove final wash.

NCI-28H cells [2] = conditions: 72 hrs
NCI-28H cells [3] = test system: NCI-28H cells

SMILES: COc1cccc2c1C(=O)c1c(O)c3c(c(O)c1C2=O)C[C@@](O)(C(=O)CO)C[C@@H]3O[C@H]1C[C@H](N)[C@H](O)[C@H](C)O1 [DOX, Doxorubicin Hydrochloride]
- AVERAGE: cells + DOX (absorbance 490 nm) (NCI-28H cells [1]; DOX 0.2 μM): 0.89
- AVERAGE: cells + DOX (absorbance 490 nm) (NCI-28H cells [1]; DOX 1 μM): 0.67
- AVERAGE: cells + DOX (absorbance 490 nm) (NCI-28H cells [1]; DOX 5 μM): 0.63

SMILES: Cc1c(N)nc([C@H](CC(N)=O)NCC(N)C(N)=O)nc1C(=O)N[C@H](C(=O)N[C@H](C)[C@@H](O)[C@H](C)C(=O)N[C@H](C(=O)NCCc1nc(-c2nc(C(=O)NCCC[S+](C)C)cs2)cs1)[C@@H](C)O)C(O[C@@H]1OC(CO)[C@@H](O)C(O)C1O[C@H]1OC(CO)[C@@H](O)C(OC(N)=O)C1O)c1c[nH]cn1 (some centres unmarked) [bleomycin, Bleomycin sulfate]
- % survival NCI-28H cells after treatment with BLEOMYCIN (NCI-28H cells [2]; Bleomycin 0.004 ug/ml): 92.41%
- % survival NCI-28H cells after treatment with BLEOMYCIN (NCI-28H cells [2]; Bleomycin 0.015 ug/ml): 88.25%
- % survival NCI-28H cells after treatment with BLEOMYCIN (NCI-28H cells [2]; Bleomycin 0.06 ug/ml): 93.38%
- % survival NCI-28H cells after treatment with BLEOMYCIN (NCI-28H cells [2]; Bleomycin 0.24 ug/ml): 91.86%
- % survival NCI-28H cells after treatment with BLEOMYCIN (NCI-28H cells [2]; Bleomycin 0.97 ug/ml): 86.19%
- % survival NCI-28H cells after treatment with BLEOMYCIN (NCI-28H cells [2]; Bleomycin 3.9 ug/ml): 71.05%
- % survival NCI-28H cells after treatment with BLEOMYCIN (NCI-28H cells [2]; Bleomycin 15.6 ug/ml): 74.60%
- % survival NCI-28H cells after treatment with BLEOMYCIN (NCI-28H cells [2]; Bleomycin 62.5 ug/ml): 68.76%
- % survival NCI-28H cells after treatment with BLEOMYCIN (NCI-28H cells [2]; Bleomycin 250 ug/ml): 47.13%
- % survival NCI-28H cells after treatment with BLEOMYCIN (NCI-28H cells [2]; Bleomycin 1000 ug/ml): 24.92%

SMILES: N.N.[Cl][Pt][Cl] [cisplatin, Cisplatin]
- Average reading: cells + cisplatin (absorbance 490 nm) (NCI-28H cells [1]; Cisplatin 0.0013 μM): 1.37
- Average reading: cells + cisplatin (absorbance 490 nm) (NCI-28H cells [1]; Cisplatin 0.0064 μM): 1.19
- Average reading: cells + cisplatin (absorbance 490 nm) (NCI-28H cells [1]; Cisplatin 0.8 μM): 1.23
- Average reading: cells + cisplatin (absorbance 490 nm) (NCI-28H cells [1]; Cisplatin 4 μM): 1.18
- Average reading: cells + cisplatin (absorbance 490 nm) (NCI-28H cells [1]; Cisplatin 20 μM): 0.48
- Average reading: cells + cisplatin (absorbance 490 nm) (NCI-28H cells [1]; Cisplatin 100 μM): 0.59

SMILES: Nc1ccn([C@@H]2O[C@H](CO)[C@@H](O)C2(F)F)c(=O)n1 [gemcitabine, Gemcitabine]
- cytotoxic effect on NCI-28H cells (in words) (NCI-28H cells [3]): clear cytotoxic effect
